Measured values published in US8124766B2, “Inhibitors of diacylglycerol acyltransferase” (Madrigal Pharmaceuticals, Inc., priority 2008, dated 2012).
pIC50: −log10 of the molar value.

system: DGAT; assay: DGAT Phospholipid FlashPlate Assay; format: biochemical; settings: DGAT pellet, DAG-coated PL-FlashPlate, 14C-Pal-CoA, 37° C. for 1 hour; read-out: DGAT Inhibition Activity IC50
Procedure: DGAT Phospholipid FlashPlate Assay
Materials for the assay were: PL-FlashPlate: Phospholipid FlashPlates from PerkinElmer, catalog number SMP108; DAG (1,2-Dioleoyl-sn-glycerol) 10 mM suspended in water containing 0.1% Triton X-100; ^14C-Pal-CoA (palmitoyl coenzyme A, [palmitoyl-1-^14C]) from PerkinElmer, catalog number NEC-555 with a specific activity of 55 mCi/mmol; and DGAT pellet, with a protein concentration of 9.85 mg/ml.
Aqueous buffers were prepared or purchased as follows: The coating buffer (CB) was purchased from PerkinElmer, catalog number SMP900A; the reaction buffer (RB) was 50 mM Tris-HCl, pH 7.5, 100 mM NaCl, 0.01% BSA in water; the washing buffer (WB) is 50 mM Tris-HCl, pH 7.5, 100 mM NaCl, 0.05% deoxycholic acid sodium salt in water; the dilution buffer (DB) was 50 mM Tris-HCl, pH 7.5, 100 mM NaCl, 1 mM EDTA, 0.2% Triton X-100 in water.
1,2-Dioleoyl-sn-glycerol (DAG, 10 mmoles) was diluted to 500 μM with coating buffer (CB). The diluted DAG solution was then added to 384-well PL-FlashPlates at 60 μl per well, and incubated at room temperature for 2 days. The coated plates were then washed twice with washing buffer (WB) before use. Test compounds were serial diluted to 2000, 666.7, 222.2, 74.1, 24.7, 8.2, 2.7 and 0.9 μM in 100% DMSO. Diluted compound were further diluted 10 fold with reaction buffer (RB). ^14C-Pal-CoA was diluted to 8.3 μM with RB. The DGAT pellet was diluted to 0.13 mg protein/ml with dilution buffer (DB) immediately before it was added to the PL-FlashPlates to start the reaction. 20 μl of the RB-diluted compounds (or 10% DMSO in RB for Total and Blank), 15 μl of RB diluted 14C-Pal-CoA and 15 μl of DB diluted DGAT pellet (DB without DGAT for Blanks) were transferred to each well of the PL-FlashPlates. The reaction mixtures were incubated at 37° C. for 1 hour. The reactions were stopped by washing 3 times with WB. Plates were sealed with Top-seal and read on a Topcount instrument.
Calculation of IC50: The IC50 values for each compound were generated using an Excel template. The Topcount rpm readings of Total and Blank were used as 0% and 100% inhibition. The percent inhibition values of reactions in the presence of compounds were calculated, and plotted against compound concentrations. All data were fitted into a Dose Response One Site model (4 parameter logistic model) as the following: (A+((B−A)/(1+((x/C)^D)))), with A and B as the bottom and top of the curve (highest and lowest inhibition), respectively, and C as IC50 and D as Hill Coefficient of the compound.

| SMILES | pIC50 |
| --- | --- |
| CC(C)(C)OC(=O)N1CCN(c2ccc(NC(=O)c3cc4c(Cl)cccc4s3)cn2)CC1 [Example 1, 4-{5-[(4-Chloro-benzo[b]thiophene-2-carbonyl)-amino]-pyridin-2-yl}-piperazine-1-carboxylic acid tert-butyl ester] | 6.53 |
| CC(C)(C)OC(=O)N1CCN(c2ccc(NC(=O)c3cc4cc(Br)ccc4s3)cn2)CC1 [Example 3, 4-{5-[(5-Bromo-benzo[b]thiophene-2-carbonyl)-amino]-pyridin-2-yl}-piperazine-1-carboxylic acid tert-butyl ester] | 6.32 |
| CCOc1cccc2c1cc(C(=O)Nc1ccc(N3CCN(C(=O)CC(C)(C)C(=O)O)CC3)nc1)n2CC [Example 6, 4-(4-{5-[(4-Ethoxy-1-ethyl-1H-indole-2-carbonyl)-amino]-pyridin-2-yl}-piperazin-1-yl)-2,2-dimethyl-4-oxo-butyric acid] | 6.72 |
| CCOc1cccc2c1cc(C(=O)Nc1ccc(C3CCN(C(=O)CC(C)(C)C(=O)O)CC3)cc1)n2CC [Example 7, 4-(4-{4-[(4-Ethoxy-1-ethyl-1H-indole-2-carbonyl)-amino]-phenyl}-piperidin-1-yl)-2,2-dimethyl-4-oxo-butyric acid] | 6.50 |
| CCn1c(C(=O)Nc2ccc(C3CCN(C(=O)CC(C)(C)C(=O)O)CC3)cc2)cc2c(C)cccc21 [Example 8, 4-(4-{4-[(1-Ethyl-4-methyl-4H-indole-2-carbonyl)-amino]-phenyl}-piperidin-1-yl)-2,2-dimethyl-4-oxo-butyric acid] | 6.28 |
| CCn1c(C(=O)Nc2ccc(C3CCN(C(=O)CC(C)(C)C(=O)O)CC3)cc2)cc2c(Cl)c(Cl)ccc21 [Example 9, 4-(4-{4-[(4,5-Dichloro-ethyl-1H-indole-2-carbonyl)-amino]-phenyl}-piperidin-1-yl)-2,2-dimethyl-4-oxo-butyric acid] | 6.48 |
| CCCOc1cccc2c1cc(C(=O)Nc1ccc(N3CCN(C(=O)OC(C)(C)C)CC3)nc1)n2CC [Example 10, 4-{5-[(1-Ethyl-4-propoxy-1,1-indole-2-carbonyl)-amino]-pyridin-2-yl}-piperazine-1-carboxylic acid tert-butyl ester] | 6.48 |
| CCn1c(C(=O)Nc2ccc(N3CCN(C(=O)OC(C)(C)C)CC3)nc2)cc2c(OCC(C)C)cccc21 [Example 12, 4-{5-[(1-Ethyl-4-isobutoxy-1H-indole-2-carbonyl)-amino]-pyridin-2-yl}-piperazine-1-carboxylic acid tert-butyl ester] | 6.56 |
| CCn1c(C(=O)Nc2ccc(N3CCN(C(=O)CC(C)(C)C(=O)O)CC3)nc2)cc2c(OCC(C)C)cccc21 [Example 13, 4-(4-{5-[(1-Ethyl-4-isobutoxy-1H-indole-2-carbonyl)-amino]-pyridin-2-yl}-piperazin-1-yl)-2,2-dimethyl-4-oxo-butyric acid hydrochloric acid] | 6.55 |

These reach a higher pIC50. Values come first.

| pIC50 | SMILES |
| --- | --- |
| 7.49 | CC(C)(CC(=O)N1CCN(c2ccc(NC(=O)c3cc4c(Cl)cccc4s3)cn2)CC1)C(=O)O [Example 2, 4-(4-{5-[(4-Chloro-benzo[b]thiophene-2-carbonyl)-amino]-pyridin-2-yl}-piperazin-1-yl)-2,2-dimethyl-4-oxo-butyric acid] |
| 7.07 | CC(C)(CC(=O)N1CCN(c2ccc(NC(=O)c3cc4cc(Br)ccc4s3)cn2)CC1)C(=O)O [Example 4, 4-(4-{5-[(5-Bromo-benzo[b]thiophene-2-carbonyl)-amino]-pyridin-2-yl}-piperazin-1-yl)-2,2-dimethyl-4-oxo-butyric acid] |
| 6.74 | CCOc1cccc2c1cc(C(=O)Nc1ccc(N3CCN(C(=O)OC(C)(C)C)CC3)nc1)n2CC [Example 5, 4-{5-[(4-Ethoxy-1-ethyl-1H-indole-2-carbonyl)-amino]-pyridin-2-yl}-piperazine-1-carboxylic acid tert-butyl ester] |
| 6.98 | CCCOc1cccc2c1cc(C(=O)Nc1ccc(N3CCN(C(=O)CC(C)(C)C(=O)O)CC3)nc1)n2CC [Example 11, 4-(4-{5-[(1-Ethyl-4-propoxy-1H-indole-2-carbonyl)-amino]-pyridin-2-yl}-piperazin-1-yl)-2,2-dimethyl-4-oxo-butyric acid] |
